The numbers were not newly measured in patent US8978468B2, “Nonvisual indication of an unwanted chemical in an ingestible substance” (priority 2009, dated 2015), which cites them from elsewhere.

Where two headings read alike, the source gives them in different places.

The conditions of series [1]: species and route not given.
Series [2] concerns mammal (species unspecified). The following applies: route not given.

Regarding 2-aminoethanol, the “Toxic Dose oral-rat LD50” value with rat (oral) is “oral-rat LD50 1720 mg/kg”. For the compound 2-methylpropane-1-thiol, in the series with rat (gavage), the “Toxic Dose gavage-rat LD50” value was “gavage-rat LD50 7168 mg/kg”. The “Toxic Dose oral-rat LD50” value in the series with rat (oral) is “oral-rat LD50 7168 mg/kg”. `CC1OCCC1S` (stereo not drawn) [2-methyltetrahydrofuran-3-thiol]: the “Toxic Dose gavage-mouse LD50” value in the series on mouse (gavage) is reported as “gavage-mouse LD50 1860 mg/kg”. In the case of `CC(C)C(C)S` (stereo not drawn) [3-methylbutane-2-thiol], the “Toxic Dose gavage-rat LD50 [sex: M, F]” value in the series with rat (gavage, sex: M, F) was 540 mg/kg. For `NCCCC(=O)O` [4-aminobutanoic acid], the “Toxic Dose oral-mouse LD50” value in the series on mouse (oral) is reported as “oral-mouse LD50 12680 mg/kg”. For the same compound, the “Toxic Dose mouse LD50” value with mouse (route not given) is “mouse LD50 7230 mg/kg”. In the case of `NC1CCCCC1` [cyclohexanamine], in series [1], the “Toxic Dose LD50” value is reported as “LD50 224 mg/kg”. The “Toxic Dose oral-rat LD50” value with rat (in vivo, po) is on record as “oral-rat LD50 11 mg/kg”. On to `SC1CCCC1` [cyclopentanethiol], for which the “Toxic Dose oral-mouse LD50 [sex: M, F (5/group)]” value in the series with mouse (oral, sex: M, F (5/group)) is given as “(5/group)] 2680 mg/kg”.

Take butane-1-thiol: in the series on rat (gavage), the “Toxic Dose gavage-rat LD50” value is “gavage-rat LD50 1500 mg/kg”. In the case of propan-1-amine, the “Toxic Dose mammal (species unspecified) LD50” value in series [2] is listed as “LD50 580 mg/kg”. For the same compound, the “Toxic Dose oral-rat LD50” value in the series on rat (oral) is “oral-rat LD50 370 mg/kg”.

In the case of propan-2-amine, the “Toxic Dose mammal (species unspecified) LD50” value in series [2] is recorded as “LD50 500 mg/kg”. Moreover, in the series with rat (oral), the “Toxic Dose oral-rat LD50” value is reported as “oral-rat LD50 111 mg/kg”.
